{"source": "patent US8138304B2", "about": "“Neural regeneration peptides and formulations thereof” (Neuren Pharmaceuticals Limited, priority 2005, dated 2012)", "key": {"[1]": {"test_system": "mouse neural stem cells (MEB-5 cells)", "experiment": "Haptotactic migration assay, physiological (injury-free) conditions", "type": "cell-based", "settings": "0.1 ng/ml NRP coating", "protocol": "An NRP was tested for migration-inducing/chemoattractive activity on mouse neural stem cells in a haptotactic migration assay as described below.\nControl wells of Transwell plates (Corning) with 12 μm pore size were coated in 1.5 ml of the BSA/PBS vehicle. Remaining plates were coated using 0.1 ng/ml of NRP (SEQ ID NO: 1) (prepared in PBS containing 10 ug/ml BSA).\nLaminin (7 μg/ml) was used as extracellular matrix (ECM) coating for mouse primary stem cells. The matrix was incubated at 37° C.; 5% C02 for 2 hrs at room temperature. The cells were seeded onto the inserts (30,000 cells per well). Plates were fixed at 1-2 days in vitro (DIV).\nA 5 ug/mL PDL/PLL mixture (in PBS) was used to coat inserts. Subsequently the inserts were rinsed with MilliQ water.\nInserts were discarded and wells fixed in successive dilutions of PFA (0.4, 1.2, 3 and 4%) for 3-5 min in each dilution. […] The wells were rinsed and stored in PBS until counting."}, "[2]": {"test_system": "embryonic mouse neural stem cells (NSCs)", "experiment": "Haptotactic migration assay in injury conditions (activated astroglial monolayer)", "type": "cell-based", "settings": "100 fM in lower compartment; TGFβ1 and scratch-activated astrocyte monolayer; 24 hrs", "protocol": "The NRP of SEQ ID NO: 1 was tested for migration-inducing/chemoattractive activity on mouse neural stem cells in a haptotactic migration assay in injury conditions, as described below.\nP1 (postnatal day 1) Wistar or Sprague Dawley rats were sacrificed by decapitation. Cortical hemispheres were removed and collected into separate tubes containing 4 ml DMEM—1 cortex per tube. The tissue was mechanically triturated. Cells were transferred into medium using a sterile pipette and filtered through a 100 um cell strainer into a 50 ml centrifuge tube. Each tube was stocked up to 50 ml with DMEM. The tubes were centrifuged for 5 mins at 350×g at 22° C. The cells were resuspended in 40 ml of DMEM+10% FBS. The cells were then seeded into a 12-well plate+5 nM ocadaic acid (to remove neurons by inducing apoptotic cell death) and incubated at 37° C./10% CO2 for 24 hrs […]. The medium+FBS was replaced after 1 day with fresh DMEM+10% FBS. The cell growth was monitored until confluency (14-18 days).\nInduction of injuries to the astrocytic monolayer was accomplished using the pharmacological agent transforming growth factor β1 (TGFβ1) and simultaneous mechanical scratching of the monolayer in order to activate astrocytics. […]\nMigrated stem cell number of labelled cells were analysed after 24 hrs by a fluorescence-based computerized imaging system (Discovery-1)."}, "[3]": {"test_system": "purified primary placental trophoblasts", "experiment": "TNF-alpha-induced cytotoxicity in isolated trophoblasts (survival assay)", "type": "cell-based, human", "settings": "24 hrs pre-incubation", "protocol": "Human trophoblast cells were isolated from term placentas with prior approval by the Ethics Committee of the University of Auckland and consent of the patients. The maternal decidua was removed, exposing the villous interior of the placenta. Pieces of villous tissue were cut out and washed thoroughly with PBS before digestion using 0.25% trypsin. The digest was then diluted in Locke Ringers Buffer and DNAase I. Digestion of connective tissue surrounding the placental cells was carried out while stirring the mixture with a magnetic stirrer at a temperature of 37° C. The process was repeated 8 times, with the last 6 supernatants being collected in a bottle containing fetal bovine serum (FBS). The digestion step produced a heterogeneous dispersed cell preparation. The pooled supernates was centrifuged for 7 minutes at 1200 rpm. The cell pellet was resuspended in PBS and centrifuged. This was followed by a 10-minute incubation in erythrocyte lysis buffer with an underlayer of FBS in the last 2 minutes, followed by centrifugation for 7 minutes. Cells were resuspended in M199 medium and recentrifuged.\nCells were then purified using a percoll gradient (5, 20, 30, 35, 40, 50 and 60%). The gradients were prepared with the 60% percoll on the bottom, with decreasing concentrations near the top of the gradient. Cells were introduced into the 5% percoll layer. The cells were centrifuged for 20 minutes at 1200G to separate trophoblasts from debris and other cell types, leaving a band of trophoblasts in the 40% percoll band. This band was collected, the cells washed in M199 medium centrifuged and finally counted and plated according to the methods of Keelan et al, 1998.\nIn this series of experiments, we studied whether NRP-5RG D6A was able to protect purified primary placental trophoblasts against TNF-alpha mediated injury.\nIn this study, we plated 30,000 freshly isolated trophoblast cells per well in microtiter well plates followed by pre-incubation with NRP-5RG D6A (SEQ ID NO: 1) for 24 hours. […]"}, "[4]": {"test_system": "primary human trophoblasts", "experiment": "Trophoblast proliferation assay (BrdU incorporation)", "type": "cell-based", "protocol": "Cell proliferation was determined by BrdU incorporation to examine the effects of NRP-5RG D6A on the proliferation of trophoblasts. EGF (0.8×10^−9 M) was used as a positive control, since studies have previously shown it plays a role in enhancing trophoblast proliferation (Maruo et al., 1992).\nInitially cells were treated with NRP-5RG D6A (SEQ ID NO: 1), EGF and BrdU (0.05 μM) for 72 hrs. After the first 24 hrs, an 80% media change was carried out since BrdU is toxic over long incubation periods. Following 72 hrs of incubation, the reaction was stopped by fixation in 4% PFA. However, with this experimental design, most trophoblasts would form syncytia by the end of the 72 hrs, hindering accurate examination of the proliferative effect of NRP-5RG D6A on trophoblasts. […] This allowed analysis of proliferation of mononuclear trophoblasts.\nCell proliferation was evaluated over 24 hrs after seeding 1.3×10^5 cells/cm^2 in culture media (1% serum) treated with 0.05 μM BrdU, NRP-5RG D6A and EGF (FIG. 13)."}}, "note": "Where no end group is shown, it is not given here.", "data": [{"substance": "REGRRAAPGRAGG-NH2 (listed as Homo sapiens) [SEQ ID NO: 1, 13-mer NRP analogue]", "values": [{"measurement": "more cells migrating in comparison with BSA-vehicle", "setting": "[1]", "value": 55.4, "unit": "%"}, {"measurement": "more stem cells migrated than vehicle-treated controls", "setting": "[2]", "value": 69.1, "unit": "%"}, {"measurement": "protection from TNF-alpha mediated injury", "setting": "[3]; 1 pM, TNF-alpha 5 or 50 ng/ml plus interferon gamma, 48 h", "value": 100, "unit": "%"}, {"measurement": "cytoprotection from TNF-alpha mediated injury", "setting": "[3]; 10 pM", "value": "protective"}, {"measurement": "cytoprotection from TNF-alpha mediated injury", "setting": "[3]; 1 nM", "value": "not statistically significant"}, {"measurement": "trophoblast proliferation compared to the control", "setting": "[4]; 10^−13 M, 24 hrs, BrdU", "value": "no increase in proliferation"}, {"measurement": "increase in trophoblast proliferation", "setting": "[4]; 10^−14 M, 24 hrs, BrdU", "value": "183.3±50.2", "unit": "%"}, {"measurement": "trophoblast proliferation at other concentrations", "setting": "[4]; any concentration other than 10^−14 M (higher concentrations, data not shown)", "value": "no proliferative effect"}]}]}
